Here are results for 2 compounds from US11779015B2, “Pesticide compositions” (FUNDACIÓ CENTRE DE REGULACIÓ GENÒMICA, priority 2017, dated 2023).

The subject of data set [1] is D. melanogaster. Put plainly: Airborne toxicity petri dish assay, adult flies exposed to VOC vapours (FIG. 1A). In kind it is in vivo, Drosophila melanogaster. The conditions noted are these: for LD50 (expected concentration at which 50% of the flies die): D. melanogaster adults, vapours from solution in paraffin oil, within an hour. The source says:
In particular, adult flies 2 were exposed to compositions 4 comprising one or more of a selection of VOCs according to the invention or a comparative example, in a petri dish 6. The compositions 4 were loaded onto the lid 6a of the petri dish 6 and the flies were placed into the base 6b of the dish, which was then covered by a sheet of plastic mesh netting 8 to avoid direct contact of the flies 2 with the compositions 4, before replacing the lid 6a. The onset of paralysis/loss of locomotion control, ultimately resulting in death of the flies 2, was monitored over a period of 1 hour or until all flies 2 were dead, determined when fly wings were vertical (similar to the protocol described in Legal et al. 1992 and 1994).
Having established that the VOCs of the invention are toxic to Drosophila spp., and in particular, D. suzukii, upon exposure to the vapours from a 10% vol. solution, the inventors set out to determine the range of concentrations at which the pesticide VOCs of the invention are expected to be lethal to Drosphila spp. Two species were chosen: the pest D. suzukii and the common Drosophila model D. melanogaster. Two exemplary compounds were chosen: (E)-2-hexenal and methyl benzoate, both of which were shown in Example 1 to be highly toxic to D. suzukii. The experimental set up used was as described in relation to FIG. 1A.
FIGS. 3A and 3C show the proportion of dead flies as a function of time in minutes, when exposed to the vapours of (E)-2-hexenal (FIG. 3A) or methyl benzoate (FIG. 3C) from a 1%, 5%, 10%, or 20% solution in paraffin oil or from pure (E)-2-hexenal or methyl benzoate. […] The data is shown as averages±SEM based on 3 to 6 trials for each condition. […]

Data set [2] relates to adult D. suzukii flies. Put plainly: Petri dish assay, dose-range 0.3 to 10% vol in paraffin oil, 24 h exposure (FIG. 3E). In kind it is in vivo, Drosophila suzukii. The conditions noted are these: paraffin oil, 24 h exposure (Example 2). The source says: Data are represented as mean proportion of dead flies, with counts separated between male (as indicated by ‘M’) and female (as indicated by ‘F’) flies. […] Data points marked NaN were not tested at the indicated concentration. The MEC column summarises the minimal effective concentration to induce 100% morbidity/mortality to adult D. suzukii flies.

Data set [3] deals with D. suzukii larvae. Put plainly: Survival and development of larvae in pre-infested blueberries. The conditions noted are these: counted after 12 days. In kind it is in vivo, Drosophila suzukii. On the procedure:
To investigate the impact of (E)-2-hexenal on the emergence of D. suzukii, eight ripe, untreated blueberries were placed in the cage 60a together with adult D. suzukii flies for 4 days. All flies were then removed and discarded and half of the pre-infested blueberries was dipped into 10 mL of a 1%, 5% or 10% E-2-hexenal aqueous emulsion (as above), while the other half was dipped in 10 mL deionized water as a control. Survival of D. suzukii larvae was measured by counting the number of adult flies that emerged from the odour-treated blueberries versus the control condition after 12 days.
The percentage of adult fly emergence under the treated and untreated conditions relative to the sum of all flies that emerged under both conditions in each assay was calculated. The results of these experiments are shown on FIG. 6C (1% vol (E)-2-hexenal), FIG. 6D (5% vol. (E)-2-hexenal), and FIG. 6E (10% vol. (E)-2-hexenal).
Eight ripe, untreated blueberries were placed in a Petri dish at the bottom of a cylindrical plastic fly cage together with 20 mixed (10 females, 10 males) adult D. suzukii flies for 4 days. All flies were then removed and discarded and half of the pre-infested blueberries was dipped into 10 mL of a 1%, 5% or 10% (E)-2-hexenal aqueous emulsion, while the other half was dipped in 10 mL deionised water as a control. The blueberries were then left to air dry, then placed in empty fly vials with cotton lids and left at ambient room temperature conditions. Survival of D. suzukii larvae was measured by counting the number of adult flies that emerged from the odour-treated blueberries versus the control condition after 12 days. The assay was repeated 5 times.

In data set [4] the test system is D. suzukii larvae. Put plainly: Fly larva chemotaxis assay. In kind it is in vivo, Drosophila suzukii. The conditions noted are these: 1% vol in paraffin oil, 5 minutes. As to the method: (§1) Larvae were exposed to 1% vol solution of (E)-2-hexenal or methyl benzoate in paraffin oil loaded onto the lid of a petri dish. Their movement was tracked for 5 minutes. A preference index was quantified as the fraction of time larvae spent in a zone around the odour sources. A population of 15 larvae were used per trial and they were placed in the centre of the petri dish at the start of the experiment. The average distance of the larvae to the odour sources was also quantified over time. The results of this analysis are shown on FIG. 9, for each of the conditions where a VOC of the invention was used. A total of 10 trials were performed for each condition, i.e. for each VOC and fly species, and 30 trials were performed for a control condition, for which only the solvent paraffin oil was applied.
(§2) Behavioural experiments were performed with third instar foraging larvae. A group of approximately 15 larvae per trial was placed in a Petri dish and monitored during 5 minutes for their chemotactic behaviour, as larvae were exposed to an odour gradient in gas phase emanating from the two odour sources on the lid of the Petri dish. […] Larval behaviour was tracked using a video camera and the data derived was then analysed in Matlab (MathWorks) using custom-made programs to calculate additional time-series variables, and to determine the preference index and the distance of larvae to the source.

Data set [5] relates to larvae of the other species of the Drosophila melanogaster species group. Put plainly: Fly larva chemotaxis assay. In kind it is in vivo, Drosophila spp. The conditions noted are these: 1% vol in paraffin oil, 5 minutes. As to the method:
as §1, §2

Data set [6] relates to honeybees (Apis mellifera). Put plainly: Airborne toxicity on honeybees in the petri dish assay. The class given is in vivo. The following applies: applied concentration 4%, paraffin oil, 24 hours.
Data set [7] has as its system D. melangaster larvae. Put plainly: Fly larva chemotaxis assay. In kind it is in vivo, Drosophila melanogaster. The conditions noted are these: D. melanogaster larvae, 1% vol in paraffin oil, 5 minutes. On the procedure: as §1, §2
The subject of data set [8] is D. santomea larvae. Put plainly: Fly larva chemotaxis assay. In kind it is in vivo. The following applies: 1% vol in paraffin oil, 5 minutes. As to the method: as §1, §2
Where [9] appears, read: D. melanogaster, concentration 1% vol.
[10] abbreviates: D. melanogaster, concentration 5% vol.
[11] abbreviates: D. melanogaster, concentration 10% vol.
Setting [12] is: D. melanogaster, concentration 20% vol.
Where [13] appears, read: D. melanogaster, concentration 100% vol.

Consider `CCC/C=C/C=O` [(E)-2-hexenal], for which, in data set [1], the “LD50 (expected concentration at which 50% of the flies die)” value came to 13.8 % vol. Also, the “T50 (time at which 50% of the flies were dead)” value in data set [1] (setting [9]) was “not lethal”; in data set [1] (setting [10]), “not lethal”; in data set [1] (setting [11]), “not lethal”; in data set [1] (setting [12]), 6.5 min; in data set [1] (setting [13]), 6.2 min. In addition, the “Minimal concentration (%) to induce 100% morbidity/mortality in D. suzukii adults” value in data set [2] came out at 4%. The “adult fly emergence from pre-infested blueberries versus control” value in data set [3] (1% vol aqueous emulsion dip) is on record as “not statistically significantly (NS) different from the control condition”; in data set [3] (5% vol aqueous emulsion dip), “does not result in any adult fly emergence”; in data set [3] (10% vol aqueous emulsion dip) it was “does not result in any adult fly emergence”. Also, the larval chemotactic response result in data set [4] and in data set [5] was “attractive chemotactic responses” throughout. In data set [6], the “Percentage of dead honey bee adults (%)” value came out at 0%.

`COC(=O)c1ccccc1` [methyl benzoate, Methyl benzoate]: the “LD50 (expected concentration at which 50% of the flies die)” value in data set [1] is 7.5 % vol. Moreover, the “T50” value in data set [1] (D. melanogaster, 10% vol) is 18.2 min. Besides, the “T50 (time at which 50% of the flies were dead)” value in data set [1] (setting [9]) was “non lethal”; in data set [1] (setting [10]) it was “non lethal”; in data set [1] (setting [11]), 18.2 min; in data set [1] (setting [12]) it was 9.8 min; in data set [1] (setting [13]), 9.1 min. Besides, the larval chemotactic response result was “strongly repulsive” in data set [4], “attractive” in data set [7] and “strongly attractive” in data set [8].
